Measurements published in ChEMBL document CHEMBL1139835, “Novel quinolizidinyl derivatives as antiarrhythmic agents” (J Med Chem, 2007).
Calls of active or inactive are those of the source. The rule behind the calls is not given here.

How the values were obtained:
[1] = Negative inotropic activity assessed as decrease in developed tension in isolated guinea pig left atrium; type: functional, tissue-based; settings: Cavia porcellus, Cardiac atrium
[2] = organism: Cavia porcellus; test: (§1) Activity against alternating current-induced arrhythmia in guinea pig left atrium at 100 uM; type: functional; settings: Cardiac atrium
[3] = Negative chronotropic activity assessed as decrease in atrial rate in isolated guinea pig right atrium at 100 uM relative to control; type: functional, Cavia porcellus, Cardiac atrium; design: scale not given: the % may be the effect or the level left
[4] = Negative inotropic activity assessed as decrease in developed tension in isolated guinea pig left atrium at 50 uM relative to control; type: functional, Cavia porcellus, Cardiac atrium; design: scale not given: the % may be the effect or the level left
[5] = system: Aorta; test: Inhibition of calcium-induced contraction of potassium ion depolarized guinea pig aortic strips at 100 uM; type: functional; settings: Cavia porcellus
[6] = Negative inotropic activity assessed as decrease in developed tension in isolated guinea pig left atrium at 1 uM relative to control; type: functional, Cavia porcellus, Cardiac atrium; design: scale not given: the % may be the effect or the level left
[7] = Activity against alternating current-induced arrhythmia in guinea pig left atrium; type: functional, tissue-based; settings: Cavia porcellus, Cardiac atrium
[8] = Activity against alternating current-induced arrhythmia in guinea pig left atrium at 5 uM; type: functional, Cavia porcellus, Cardiac atrium
[9] = Negative chronotropic activity assessed as decrease in atrial rate in isolated guinea pig right atrium at 50 uM relative to control; type: functional, Cavia porcellus, Cardiac atrium; design: scale not given: the % may be the effect or the level left
[10] = Activity against alternating current-induced arrhythmia in guinea pig left atrium at 50 uM; type: functional, Cavia porcellus, Cardiac atrium
[11] = as §1; type: functional, Cavia porcellus, Cardiac atrium
[12] = system: Heart; test: Heart rate in spontaneously beating Langendorff-perfused guinea pig heart at 0.1uM; type: functional, Cavia porcellus; design: unit: beats/min
[13] = system: Heart; test: Heart rate in spontaneously beating Langendorff-perfused guinea pig heart at 10 nM; type: functional, Cavia porcellus; design: unit not given here
[14] = system: Heart; test: Intraventricular conduction time in spontaneously beating Langendorff-perfused guinea pig heart at 1 uM; type: functional, Cavia porcellus
[15] = system: Heart; test: Atrioventricular conduction time in spontaneously beating Langendorff-perfused guinea pig heart at 10 uM; type: functional, Cavia porcellus
[16] = system: Heart; test: Ventricular action potential duration in spontaneously beating Langendorff-perfused guinea pig heart at 10 uM; type: functional, Cavia porcellus
[17] = system: Heart; test: Ventricular action potential duration in spontaneously beating Langendorff-perfused guinea pig heart at 1 nM; type: functional, Cavia porcellus
[18] = system: Heart; test: Intraventricular conduction time in spontaneously beating Langendorff-perfused guinea pig heart at 10 uM; type: functional, Cavia porcellus
[19] = system: Heart; test: Atrioventricular conduction time in spontaneously beating Langendorff-perfused guinea pig heart at 1 nM; type: functional, Cavia porcellus
[20] = system: Heart; test: Atrioventricular conduction time in spontaneously beating Langendorff-perfused guinea pig heart at 0.1 uM; type: functional, Cavia porcellus
[21] = system: Heart; test: Heart rate in spontaneously beating Langendorff-perfused guinea pig heart at 10 uM; type: functional, Cavia porcellus; design: unit not given here
[22] = system: Heart; test: Ventricular action potential duration in spontaneously beating Langendorff-perfused guinea pig heart at 0.1 uM; type: functional, Cavia porcellus
[23] = Negative inotropic activity assessed as decrease in developed tension in isolated guinea pig left atrium at 5 uM relative to control; type: functional, Cavia porcellus, Cardiac atrium; design: scale not given: the % may be the effect or the level left
[24] = system: Heart; test: Intraventricular conduction time in spontaneously beating Langendorff-perfused guinea pig heart at 0.1 uM; type: functional, Cavia porcellus
[25] = system: Heart; test: Ventricular action potential duration in spontaneously beating Langendorff-perfused guinea pig heart at 10 nM; type: functional, Cavia porcellus
[26] = system: Heart; test: Intraventricular conduction time in spontaneously beating Langendorff-perfused guinea pig heart at 10 nM; type: functional, Cavia porcellus
[27] = system: Heart; test: Atrioventricular conduction time in spontaneously beating Langendorff-perfused guinea pig heart at 10 nM; type: functional, Cavia porcellus
[28] = system: Heart; test: Heart rate in spontaneously beating Langendorff-perfused guinea pig heart at 1 uM; type: functional, Cavia porcellus; design: unit not given here
[29] = system: Heart; test: Intraventricular conduction time in spontaneously beating Langendorff-perfused guinea pig heart at 1 nM; type: functional, Cavia porcellus
[30] = system: Heart; test: Heart rate in spontaneously beating Langendorff-perfused guinea pig heart at 1 nM; type: functional, Cavia porcellus; design: unit not given here
[31] = system: Heart; test: Ventricular action potential duration in spontaneously beating Langendorff-perfused guinea pig heart at 1 uM; type: functional, Cavia porcellus
[32] = system: Heart; test: Atrioventricular conduction time in spontaneously beating Langendorff-perfused guinea pig heart at 1 uM; type: functional, Cavia porcellus
[33] = Negative inotropic activity assessed as decrease in developed tension in isolated guinea pig left atrium at 0.5 uM relative to control; type: functional, Cavia porcellus, Cardiac atrium; design: scale not given: the % may be the effect or the level left
[34] = Positive chronotropic activity in isolated guinea pig right atrium relative to control; type: functional, Cavia porcellus, Cardiac atrium
[35] = tissue or blood; settings: Cavia porcellus, Cardiac atrium
[36] = system: Aorta; test: Inhibition of calcium-induced contraction of potassium ion depolarized guinea pig aortic strips at 50 uM; type: functional; settings: Cavia porcellus
[37] = Negative inotropic activity assessed as decrease in developed tension in isolated guinea pig left atrium at 100 uM relative to control; type: functional, Cavia porcellus, Cardiac atrium; design: scale not given: the % may be the effect or the level left
[38] = Activity against alternating current-induced arrhythmia in guinea pig left atrium at 10 uM; type: functional, Cavia porcellus, Cardiac atrium

For Cc1cc([N+](=O)[O-])cc(C)c1NC(=O)C[C@@H]1CCCN2CCCC[C@H]12, the EC50 [1] was 3460 nM, the Activity [2] was “inactive” and the Activity [3] was 25%. It also gave an Activity [4] of 79% and an inhibition at 100 µM [5] of 4%.

Cc1cc(NS(C)(=O)=O)cc(C)c1OC[C@@H]1CCCN2CCCC[C@H]12 gave an Activity [6] of 83%, an EC50 [1] of 31 nM and an EC50 [7] of 1250 nM. For the same compound, the Activity [3] was 12%, the Activity [8] was 60% and the inhibition at 100 µM [5] was 30%.

Compound Cc1cc(C(=O)c2ccccc2)cc(C)c1OC[C@@H]1CCCN2CCCC[C@H]12 has an EC50 [1] of 160 nM, an EC50 [7] of 6750 nM and an Activity [9] of 41%. The Activity [4] was 94%, the inhibition at 100 µM [5] was 17% and the Activity [10] was 64%.

Work on Cc1cc(NS(C)(=O)=O)cc(C)c1OC[C@H]1CCCN2CCCC[C@H]12 yielded an Activity [6] of 64%, an EC50 [1] of 140 nM and an Activity [11] of 5%. The Activity [3] was 34% and the inhibition at 100 µM [5] was 23%.

Work on Cc1cc(N)cc(C)c1OC[C@@H]1CCCN2CCCC[C@H]12 yielded an EC50 [1] of 290 nM, an EC50 [7] of 970 nM and an Activity [12] of 184. The Activity [13] was 190, the Activity [14] was 32 ms and the Activity [15] was 70 ms. The Activity [16] was 205 ms, the Activity [11] was 166% and the Activity [17] was 160 ms. It also gave an Activity [18] of 32 ms, an Activity [3] of 38% and an Activity [19] of 58 ms. For the same compound, the Activity [20] was 64 ms, the Activity [21] was 175 and the Activity [22] was 182 ms. It also gave an Activity [23] of 83%, an inhibition at 100 µM [5] of 15% and an Activity [24] of 31 ms. The Activity [25] was 170 ms, the Activity [26] was 33 ms and the Activity [27] was 60 ms. The Activity [28] was 180, the Activity [29] was 30 ms and the Activity [30] was 192. It also gave an Activity [31] of 194 ms and an Activity [32] of 66 ms.

CCN(CC)CCNC(=O)c1ccc(N)cc1 [PROCAINAMIDE] showed an EC50 [1] of 14 nM, an Activity [33] of 92% and an Activity [34] of 9%. For the same compound, the inhibition at 100 µM [5] was 3% and the Activity [10] was 11%.

In the case of Cc1cc(C(=O)c2ccccc2)cc(C)c1OC[C@H]1CCCN2CCCC[C@H]12, the Activity [6] is reported as 64%, the EC50 [1] is reported as 160 nM and the EC50 [35] is reported as 6630 nM. For the same compound, the EC50 [7] was 19900 nM, the Activity [9] was 75% and the inhibition at 50 µM [36] was 38%. The Activity [10] was 104%.

Cc1cc([N+](=O)[O-])cc(C)c1OC[C@@H]1CCCN2CCCC[C@H]12 gave an EC50 [1] of 8390 nM, an EC50 [35] of 23700 nM and an Activity [9] of 66%. It also gave an inhibition at 100 µM [5] of 16%, an Activity [10] of 27% and an Activity [37] of 91%.

Compound Nc1ccc(C(=O)NC[C@@H]2CCCN3CCCC[C@H]23)cc1 has an EC50 [1] of 460 nM, an Activity [34] of 13% and an Activity [38] of 28%. The inhibition at 100 µM [5] was 3% and the Activity [37] was 95%.

Compound CCCCc1oc2ccccc2c1C(=O)c1cc(I)c(OCCN(CC)CC)c(I)c1 [AMIODARONE] has an Activity [12] of 171, an Activity [13] of 180 and an Activity [14] of 22 ms. For the same compound, the Activity [15] was 58 ms, the Activity [16] was 182 ms and the Activity [11] was 10%. It also gave an Activity [17] of 161 ms, an Activity [18] of 24 ms and an Activity [3] of 72%. It also gave an Activity [19] of 54 ms, an Activity [20] of 55 ms and an Activity [21] of 132. The Activity [22] was 169 ms, the inhibition at 100 µM [5] was 3% and the Activity [24] was 21 ms. The Activity [25] was 161 ms, the Activity [26] was 20 ms and the Activity [27] was 55 ms. For the same compound, the Activity [28] was 164, the Activity [29] was 20 ms and the Activity [30] was 187. The Activity [37] was 30%, the Activity [31] was 174 ms and the Activity [32] was 56 ms.

With O=C(NC[C@@H]1CCCN2CCCC[C@H]12)c1ccc([N+](=O)[O-])cc1 the Activity [6] was 74%, the EC50 [1] was 38 nM and the Activity [11] was 18%. It also gave an Activity [3] of 28% and an inhibition at 100 µM [5] of 18%.
